Data: ChEMBL document CHEMBL5120826, “Effects of β-lapachone and β-nor-lapachone on multidrug efflux transporters and biofilms of Candida glabrata” (Bioorg Med Chem, 2022)
Values after ≈ are worked out from the molar mass of the structure shown. Active and inactive are the calls of the source. The calls are words filed in the database; no cut-off is given here.

Legend:
[1] = Inhibition of fluconazole sensitive Candida glabrata ATCC 2001 […] cell adhesion to polystyrene at 200 ug/ml incubated for 90 mins by MTT assay; format: functional; conditions: Nakaseomyces glabratus, ATCC 2001, 1.5 h
Nakaseomyces glabratus [2] = assay: Indifferent antifungal activity against fluconazole resistant Candida glabrata 109 overexpressing CgCdr1p transporter assessed as reduction in fungal growth incubated for 48 hrs in presence of fluconazole by checkboard assay based microplate reader analysis; format: functional
Nakaseomyces glabratus [3] = assay: Antifungal activity against fluconazole resistant Candida glabrata 109 overexpressing CgCdr1p transporter assessed as reduction in fungal growth incubated for 48 hrs in presence of fluconazole by serial dilution method; format: functional, organism-based
Nakaseomyces glabratus [4] = assay: Indifferent antifungal activity against fluconazole sensitive Candida glabrata ATCC 2001 assessed as reduction in fungal growth incubated for 48 hrs in presence of fluconazole by checkboard assay based microplate reader analysis; format: functional
Saccharomyces cerevisiae [5] = assay: Antifungal activity against fluconazole resistant Saccharomyces cerevisiae overexpressing CgCdr2p transporter assessed as reduction in fungal growth incubated for 48 hrs by checkboard assay based microplate reader analysis; format: functional
Nakaseomyces glabratus [6] = assay: Induction of morphological changes in fluconazole resistant Candida glabrata 109 overexpressing CgCdr1p transporter assessed as decrease in number of cells within biofilm at 200 ug/ml incubated for 48 hrs by SEM analysis; format: functional, organism-based; conditions: dose 200.0 µg/ml
Nakaseomyces glabratus [7] = assay: Additive antifungal activity against fluconazole resistant Candida glabrata 109 overexpressing CgCdr1p transporter assessed as reduction in fungal growth incubated for 48 hrs in presence of lapachone by checkboard assay based microplate reader analysis; format: functional
Nakaseomyces glabratus [8] = assay: Induction of ROS generation in fluconazole resistant Candida glabrata 109 overexpressing CgCdr1p assessed as fold increase in ROS level incubated for 90 mins by DCFH-DA dye based fluorescence assay; format: functional; conditions: 1.5 h
Nakaseomyces glabratus [9] = assay: Additive antifungal activity against fluconazole resistant Candida glabrata 109 overexpressing CgCdr1p transporter assessed as fractional inhibitory concentration incubated for 48 hrs in presence of fluconazole by checkboard assay based microplate reader analysis; format: functional
Nakaseomyces glabratus [10] = assay: Indifferent antifungal activity against fluconazole sensitive Candida glabrata ATCC 2001 assessed as fractional inhibitory concentration index incubated for 48 hrs by checkboard assay based microplate reader analysis; format: functional
Saccharomyces cerevisiae [11] = assay: Induction of ROS generation in fluconazole resistant Saccharomyces cerevisiae overexpressing CgCdr2p transporter assessed as fold increase in ROS level incubated for 90 mins by DCFH-DA dye based fluorescence assay; format: functional; conditions: 1.5 h
Saccharomyces cerevisiae [12] = assay: Synergistic antifungal activity against fluconazole resistant Saccharomyces cerevisiae overexpressing CgCdr2p transporter assessed as fractional inhibitory concentration index incubated for 48 hrs by checkboard assay based microplate reader analysis; format: functional
Saccharomyces cerevisiae [13] = assay: Antifungal activity against fluconazole resistant Saccharomyces cerevisiae overexpressing CgCdr1p transporter assessed as reduction in fungal growth incubated for 48 hrs in presence of fluconazole by serial dilution method; format: functional, organism-based
Nakaseomyces glabratus [14] = assay: Indifferent antifungal activity against fluconazole sensitive Candida glabrata ATCC 2001 assessed as fractional inhibitory concentration incubated for 48 hrs in presence of fluconazole by checkboard assay based microplate reader analysis; format: functional
Nakaseomyces glabratus [15] = assay: Induction of morphological changes in fluconazole resistant Candida glabrata 109 overexpressing CgCdr1p transporter assessed as decrease in biofilm thickness at 200 ug/ml by calcofluor white dye based confocal laser scanning microscopy; format: functional, organism-based; conditions: dose 200.0 µg/ml
Saccharomyces cerevisiae [16] = assay: Antifungal activity against fluconazole resistant Saccharomyces cerevisiae overexpressing CgCdr1p transporter assessed as reduction in fungal growth incubated for 48 hrs by checkboard assay based microplate reader analysis; format: functional
Nakaseomyces glabratus [17] = assay: Indifferent antifungal activity against fluconazole sensitive Candida glabrata ATCC 2001 assessed as fractional inhibitory concentration incubated for 48 hrs in presence of lapachone by checkboard assay based microplate reader analysis; format: functional
Nakaseomyces glabratus [18] = assay: Additive antifungal activity against fluconazole resistant Candida glabrata 109 overexpressing CgCdr1p transporter assessed as fractional inhibitory concentration incubated for 48 hrs in presence of lapachone by checkboard assay based microplate reader analysis; format: functional
Nakaseomyces glabratus [19] = assay: Additive antifungal activity against fluconazole resistant Candida glabrata 109 overexpressing CgCdr1p transporter assessed as fractional inhibitory concentration index incubated for 48 hrs by checkboard assay based microplate reader analysis; format: functional
Nakaseomyces glabratus [20] = assay: Additive antifungal activity against fluconazole resistant Candida glabrata 109 overexpressing CgCdr1p transporter assessed as reduction in fungal growth incubated for 48 hrs in presence of fluconazole by checkboard assay based microplate reader analysis; format: functional
Saccharomyces cerevisiae [21] = assay: Antifungal activity against fluconazole resistant Saccharomyces cerevisiae overexpressing CgCdr1p transporter assessed as reduction in fungal growth at lower concentration incubated for 48 hrs by serial dilution method; format: functional, organism-based
Nakaseomyces glabratus [22] = assay: Antibiofilm activity against fluconazole sensitive Candida glabrata ATCC 2001 assessed as reduction in metabolic activity up to 200 ug/ml incubated for 48 hrs; format: functional; design: scale not given: the % may be the effect or the level left; conditions: dose <= 200 µg/ml, up to 200 µg/mL
Saccharomyces cerevisiae [23] = assay: Antifungal activity against fluconazole resistant Saccharomyces cerevisiae overexpressing CgCdr2p transporter assessed as reduction in fungal growth incubated for 48 hrs in presence of fluconazole by serial dilution method; format: functional, organism-based
Saccharomyces cerevisiae [24] = assay: Effect on efflux pump function in fluconazole resistant Saccharomyces cerevisiae overexpressing CgCdr1p transporter assessed as accumulation of Nile red fluorescence incubated for 1 hr by fluorescence based assay; format: functional
Nakaseomyces glabratus [25] = assay: Antibiofilm activity against fluconazole resistant Candida glabrata 109 overexpressing CgCdr1p transporter assessed as inhibition of biofilm formation at 200 ug/ml incubated for 48 hrs; format: functional
Nakaseomyces glabratus [26] = assay: Antifungal activity against fluconazole resistant Candida glabrata 109 overexpressing CgCdr1p transporter assessed as reduction in fungal growth incubated for 48 hrs by checkboard assay based microplate reader analysis; format: functional
Nakaseomyces glabratus [27] = assay: Effect on efflux pump function in fluconazole resistant Candida glabrata 109 overexpressing CgCdr1p transporter assessed as accumulation of Nile red fluorescence incubated for 1 hr by fluorescence based assay; format: functional
Saccharomyces cerevisiae [28] = assay: Effect on efflux pump function in fluconazole resistant Saccharomyces cerevisiae overexpressing CgCdr2p transporter assessed as accumulation of Nile red fluorescence incubated for 1 hr by fluorescence based assay; format: functional
Nakaseomyces glabratus [29] = assay: Antibiofilm activity against fluconazole sensitive Candida glabrata ATCC 2001 assessed as inhibition of biofilm formation at 200 ug/ml incubated for 48 hrs; format: functional
Nakaseomyces glabratus [30] = assay: Induction of morphological changes in fluconazole resistant Candida glabrata 109 overexpressing CgCdr1p transporter assessed as decrease in cellular density at 200 ug/ml by calcofluor white dye based confocal laser scanning microscopy; format: functional, organism-based; conditions: dose 200.0 µg/ml
Nakaseomyces glabratus [31] = assay: Induction of morphological changes in fluconazole resistant Candida glabrata 109 overexpressing CgCdr1p transporter assessed as decrease in cell-cell adhesion at 200 ug/ml by calcofluor white dye based confocal laser scanning microscopy; format: functional, organism-based; conditions: dose 200.0 µg/ml
Nakaseomyces glabratus [32] = assay: Indifferent antifungal activity against fluconazole resistant Candida glabrata 109 overexpressing CgCdr1p transporter assessed as fractional inhibitory concentration index incubated for 48 hrs by checkboard assay based microplate reader analysis; format: functional
Nakaseomyces glabratus [33] = assay: Induction of ROS generation in fluconazole resistant Candida glabrata 109 overexpressing CgCdr1p transporter assessed as fold increase in ROS production at 200 ug/ml incubated for 48 hrs by DCFH-DA dye based fluorescence assay; format: functional
Saccharomyces cerevisiae [34] = assay: Inhibition of fluconazole resistant Saccharomyces cerevisiae overexpressing CgCdr1p transporter ATPase activity assessed as reduction in inorganic phosphate release in presence of ATP incubated for 1 hr by Fiske and Sub barrow method; conditions: concentration not given here

## CC1(C)CC2=C(O1)c1ccccc1C(=O)C2=O [NOR-BETA-LAPACHONE]
[1]
  inhibition at 200 µg/mL: 28%
Nakaseomyces glabratus [2]
  MIC: > 1000 µg/mL
Nakaseomyces glabratus [3]
  Activity: Active
Nakaseomyces glabratus [4]
  MIC: 15.6 µg/mL
Saccharomyces cerevisiae [5]
  MIC: 25 µg/mL (≈ 110 µM)
Nakaseomyces glabratus [6]
  Activity: Active
Nakaseomyces glabratus [7]
  MIC: 50 µg/mL
Nakaseomyces glabratus [8]
  fold change (FC): 5
Nakaseomyces glabratus [9]
  FIC: 0.125 µg/mL
Nakaseomyces glabratus [10]
  fractional inhibitory concentration index (FICI): 2
Saccharomyces cerevisiae [11]
  fold change (FC): 3
Saccharomyces cerevisiae [12]
  fractional inhibitory concentration index (FICI): 0.37
Saccharomyces cerevisiae [13]
  Activity: Active
Nakaseomyces glabratus [14]
  FIC: 1 µg/mL
Nakaseomyces glabratus [15]
  Activity: Active
Saccharomyces cerevisiae [16]
  MIC: 50 µg/mL (≈ 219 µM)
Nakaseomyces glabratus [17]
  FIC: 1 µg/mL
Nakaseomyces glabratus [18]
  FIC: 0.5 µg/mL
Nakaseomyces glabratus [19]
  fractional inhibitory concentration index (FICI): 0.625
Nakaseomyces glabratus [20]
  MIC: 31.2 µg/mL
Saccharomyces cerevisiae [21]
  Activity: Active
Nakaseomyces glabratus [22]
  Activity: 81%
Saccharomyces cerevisiae [23]
  Activity: Active
Saccharomyces cerevisiae [24]
  Activity: 100%
Nakaseomyces glabratus [25]
  inhibition at 200 µg/mL: 48%
Nakaseomyces glabratus [26]
  MIC: 100 µg/mL (≈ 438 µM)
Nakaseomyces glabratus [27]
  Activity: 100%
Saccharomyces cerevisiae [28]
  Activity: 50%
Nakaseomyces glabratus [29]
  inhibition at 200 µg/mL: 70%
Nakaseomyces glabratus [30]
  Activity: Active
Nakaseomyces glabratus [31]
  Activity: Active
Nakaseomyces glabratus [32]
  fractional inhibitory concentration index (FICI): 2
Nakaseomyces glabratus [33]; dose 200.0 µg/ml
  Activity: Active
Saccharomyces cerevisiae [34]
  inhibition: 25%

## CC1(C)CCC2=C(O1)c1ccccc1C(=O)C2=O [LAPACHONE]
[1]
  inhibition at 200 µg/mL: 55%
Nakaseomyces glabratus [2]
  MIC: > 1000 µg/mL
Nakaseomyces glabratus [3]
  Activity: Active
Nakaseomyces glabratus [4]
  MIC: 15.6 µg/mL
Saccharomyces cerevisiae [5]
  MIC: 25 µg/mL (≈ 103 µM)
Nakaseomyces glabratus [6]
  Activity: Active
Nakaseomyces glabratus [7]
  MIC: 12.5 µg/mL
Nakaseomyces glabratus [8]
  fold change (FC): 5
Nakaseomyces glabratus [9]
  FIC: 0.125 µg/mL
Nakaseomyces glabratus [10]
  fractional inhibitory concentration index (FICI): 2
Saccharomyces cerevisiae [11]
  fold change (FC): 3
Saccharomyces cerevisiae [12]
  fractional inhibitory concentration index (FICI): 0.31
Saccharomyces cerevisiae [13]
  Activity: Active
Nakaseomyces glabratus [14]
  FIC: 1 µg/mL
Nakaseomyces glabratus [15]
  Activity: Active
Saccharomyces cerevisiae [16]
  MIC: 100 µg/mL (≈ 413 µM)
Nakaseomyces glabratus [17]
  FIC: 1 µg/mL
Nakaseomyces glabratus [18]
  FIC: 0.5 µg/mL
Nakaseomyces glabratus [19]
  fractional inhibitory concentration index (FICI): 0.625
Nakaseomyces glabratus [20]
  MIC: 31.2 µg/mL
Saccharomyces cerevisiae [21]
  Activity: Active
Nakaseomyces glabratus [22]
  Activity: 93%
Saccharomyces cerevisiae [23]
  Activity: Active
Saccharomyces cerevisiae [24]
  Activity: 100%
Nakaseomyces glabratus [25]
  inhibition at 200 µg/mL: 72%
Nakaseomyces glabratus [26]
  MIC: 25 µg/mL (≈ 103 µM)
Nakaseomyces glabratus [27]
  Activity: 35%
Saccharomyces cerevisiae [28]
  Activity: 50%
Nakaseomyces glabratus [29]
  inhibition at 200 µg/mL: 95%
Nakaseomyces glabratus [30]
  Activity: Active
Nakaseomyces glabratus [31]
  Activity: Active
Nakaseomyces glabratus [32]
  fractional inhibitory concentration index (FICI): 2
Nakaseomyces glabratus [33]; dose 200 µg/ml
  fold change (FC): 16
Saccharomyces cerevisiae [34]
  inhibition: 76%
